Laboratory results taken from patent publication US20250101383A1, “METHODS AND COMPOSITIONS FOR CARDIAC MODELS” (Sanford Burnham Prebys Medical Discovery Institute, priority 2023, published 2025).

Tests used:
[1] = system: hiPSC-ACMs (atrial-like cardiomyocytes); assay: Arrhythmia assay and drug treatment in ACMs (arrhythmia index, AI); format: cell-based, human; details: for percentage of cells with AI values >20: control 4%
Protocol: To test the platform's ability to identify APD modulators, ACMs of the present disclosure were infused with isoproterenol, a non-selective β-adrenergic agonist, known to both shorten APD and increase beat rate in hiPSC-CMs. […] Consistent with median APD75 values, escalating doses of isoproterenol (1 and 9 μM) led to an increase of APD75 KS-D value to ˜0.4 and 0.7 respectively, as compared to control (FIG. 5C). Similarly, to quantify cellular manifestations of arrhythmia, an arrhythmia index (AI) was developed that quantifies beat-to-beat interval irregularities as a metric for arrhythmically beating cells (FIG. 9). In this context, AP trains with AI values lower than 20 were determined to describe regular beating patterns, while AP train with AI values >20 mark were determined to describe irregular beating patterns (FIGS. 10A-E). Finally, to benchmark the platform for arrhythmia-associated phenotypes, the role of dofetilide, a class III anti-arrhythmic that selectively blocks the rapid component of the delayed rectifier outward potassium, was tested.
24 hours post-transfection, 2,000 primary human fibroblasts were added per well to the hiPSC-ACMs. 48 hours later (the day of the imaging), cells were dyed with the voltage sensitive dye Vf2.1 Cl as described above, then treated with 50 μL of 2× solution of isoproterenol (1 μM final) diluted in Tyrode alone and in combination with 2× solution of Verapamil (30 nM final), diluted in Tyrode at the 5th wash. After 20 minutes of compound incubation time, cells were imaged, and single-cell traces analyzed as described previously.

[2] = system: hiPSC-ACMs (atrial-like cardiomyocytes); assay: Voltage assay in ACMs (single-cell APD); format: cell-based, human; details: for median APD75: untreated 121.3 ms
From the text: Next, to facilitate the characterization of AF-associated arrhythmia phenotypes in ACMs, an imaging platform was developed that automatically tracks and quantifies action potential (AP) and rhythm parameters in HT with single cell resolution (FIGS. 4A-D). To retrieve AP and rhythm parameters, ACMs of the present disclosure were co-labeled with a voltage dye (VF2.1Cl) and a nuclear dye (Hoechst 33258) (McKeithan et al., 2017). For each condition, one image of the Hoechst dye was collected followed by a 5-second acquisition of the voltage dye channel at 100 Hz. Next, using a custom algorithm developed on the ImageXpress®, each cell in the field of view was segmented using the Hoechst topological information and each cell mask was propagated to the “voltage dye channel”, thereby enabling the quantification of voltage-dependent fluorescence variation over time with single-cell resolution. To retrieve the electrophysiological parameters, a cloud-based trace analysis application was developed that automatically processes each AP trace and retrieves median and standard deviation values, for APD-10, 25, 50, 75, 90; T25-75, T75-25; Vmax up and down; beat rate; peak-to-peak interval; and rhythm regularity index; for each cell. This platform enabled the automatic recording, quantification, and analysis of AP and rhythm parameters in less than 2 minutes per condition.
Voltage assay was performed using the labeling protocol described herein. Briefly, hiPSC-ACMs at day 25 of differentiation were dissociated with TrypLE Select 10× for up to 10 min and the action of TrypLE was neutralized with RPMI supplemented with 10% FBS. Cells were resuspended in RPMI with 2% KOSR (Gibco) and 2% B27 50× with vitamin A (Life Technologies) supplemented with 2 μM Thiazovivin and plated at a density of 6,000 cells per well in a Matrigel-coated 384-well plate. hiPSC-ACMs were then transfected with siRNAs directed against AFib-associated genes (ON-TARGETplus Human, siGATA4: J-008244-05-0002, siGATA5: J-010324-06-0005, siGATA6: J-008351-06-0005, siGJA1: J-011042-05-0002, siGJA5: J-017368-05-0002, siHAND2: J-008698-06-0005, siHCN4: J-006203-05-0002, siKCNA5: J-006215-06-0005, siKCND3: L-006226-00-0005, siKCNJ5: J-006250-06-0002, siKCNN3: J-006270-06-0002, siNKX2-5: J-019795-07-0002, siNKX2-6: J-025793-17-0002, siNPPA: J-012729-05-0002, siPITX2: J-017315-05-0005, siPLN: J-011754-05-0005, siSH3PXD2A: J-006657-07-0002, siSYNE2: J-019259-09-0002, siTBX5: J-013410-5-0002, siZFHX3: J-015410-5-0002) using lipofectamine RNAi Max (ThermoFisher). […] Fluorescence over time quantification and trace analysis were quantified using custom software packages. […]

Id1-induced CPs = assay: Generation of atrial-like cardiomyocytes from Id1-induced cardiac progenitors; format: cell-based, human; details: retinoic acid 300 nM single dose, day 12
Protocol: To study the molecular basis of chamber-specific electrical disorders such as atrial fibrillation, Id1-overexpressing cardiac progenitors (CPs) were used to generate ACMs (Cunningham et al., 2017, and Yu et al., 2018). Treatment of Id1-induced CPs with a single dose of retinoic acid (300 nM) efficiently promoted the generation of atrial-like, NR2F2+ beating CMs (˜80% were NR2F2+, ACTN2+) (FIG. 1 and FIGS. 2A-B). Consistent with an atrial-like identity, induced ACMs also expressed atria-enriched (Devalla et al., 2015; Uhlen et al., 2015) transcription factors (NR2F2, TBX5, ZNF385B), ion channel genes KCNA5 (encoding Kv1.5) and KCNJ3 (encoding Kir 3.1), ligands (NPPA, NPPB) and receptors (EGR1/2, PDGFRA), at both day 12 and at day 25 of differentiation (FIG. 2C and FIGS. 6A-B).
ACMs for the study were developed by dissociating Id1 overexpressing hiPSCsl with 0.5 mM EDTA (ThermoFisher Scientific) in PBS without CaCl2 and MgCl2 (Corning) for 7 min at room temperature. hiPSC were resuspended in mTeSR-1 media (StemCell Technologies) supplemented with 2 μM Thiazovivin (StemCell Technologies) and plated in a Matrigel-coated 12-well plate at a density of 3×10^5 cells per well. […]

Drosophila heart = assay: Octopamine-challenge heart assay; format: in vivo; details: for mean nMAD (arrhythmia) post-octopamine pacing: 100 nM OA
From the text: Cardiac phenotypes of middle-aged (3-weeks old) female flies from each cross were characterized using denervated, semi-intact preparations as previously described in (Ocorr et al., 2009; Vogler and Ocorr, 2009). Briefly, hearts from 20-25 flies were examined for each genotype and age. Adult female flies were exposed to FlyNap, a triethylamine-based anesthetic, for at least one minute until no movement was detected. Hearts were exposed by dissection in room temperature, air bubbled, artificial hemolymph (AHL, Ocorr et al, 2007). High-speed video recordings were filmed with a Hamamatsu EM-CCD camera and using HC Image capture software (Hamamatsu Corp). Heart movements were analyzed using the Semi-automated Optical Heartbeat Analysis (SOHA) software (sohasoftware.com). Movies were recorded at speeds of 140+ fps with pixel resolution ˜ 1 micron/pixel allowing very precise temporal and spatial measurements, including heart period (HP) and rate (1/HP), diastolic and systolic intervals, and fractional shortening/contractility. To quantitate arrhythmia, median absolute deviation (MAD) was first calculated. The median value of the absolute deviations of each heart period (Xi) from the median heart period ((X)) was calculated and then multiplied by a constant (k=1.4826 assuming data is normally distributed).
To normalize the MAD index (nMAD), the MAD value was divided by the median heart period. Qualitative records of heart wall movements (M-modes/kymographs) were produced by electronically excising a 1 pixel horizontal “slice” from each movie frame and aligning them horizontally providing an edge trace displaying heart wall movements in the X-axis over time along the Y-axis (Ocorr et al., 2009; Ocorr et al., 2007c).
Octopamine (OA) pacing experiments were performed in situ on the semi-intact fly preparation. OA (Sigma-Aldrich #00250) stock solution (10 mM) was freshly prepared by dissolving in water and was further diluted in AHL. A dose-response curve was generated using doses ranging from 0.1 nM OA to 500 nM OA (Supplemental FIG. 5A). The increase in heart rate was maximal at 100 nM OA, which was the dose used for all subsequent pacing experiments (Supplemental FIG. 5B). Following dissection, hearts were first allowed to equilibrate in fresh AHL for 15 min and 30 sec movies of heart function were recorded. Heart function was recorded three times per fly: 1) pre-drug exposure, 2) after a 15-minute exposure to 100 nM OA, and 3) after a 15-minute post drug exposure recovery period. A second set of hearts exposed only to vehicle (AHL) were filmed at the same three 15-minute intervals to serve as time controls.

[3] = acute OA exposure, control and KD lines

For `CC(C)NCC(O)c1ccc(O)c(O)c1` (stereo not shown) [isoproterenol], the “percentage of arrhythmic cells” value ([1]; isoproterenol alone) was “did not increase”, the “APD75 KS-D value as compared to control” value ([2]; isoproterenol 1 μM) was about 0.4 and the “median APD75” value ([2]; isoproterenol 1 μM) was 108.6 ms. The “APD75 KS-D value as compared to control” value ([2]; isoproterenol 9 μM) was 0.7 and the “median APD75” value ([2]; isoproterenol 9 μM) was 91.2 ms.

With `CC1=C(/C=C/C(C)=C/C=C/C(C)=C/C(=O)O)C(C)(C)CCC1` [retinoic acid] the “NR2F2+, ACTN2+ cells” value (Id1-induced CPs) was about 80%.

For `CN(CCOc1ccc(NS(C)(=O)=O)cc1)CCc1ccc(NS(C)(=O)=O)cc1` [dofetilide], the “proportion of arrhythmic cells (AI>20)” value ([1]; dofetilide 33 nM, control 4.0%) was 3.9%, the “KS-D value of AI distribution vs control” value ([1]; dofetilide 100 nM) was 0.7 and the “percentage of cells with AI values >20” value ([1]; dofetilide 100 nM) was 67%. For the same molecule, the “percentage of cells with AI values >20” value ([1]; dofetilide 100 nM, listed as Dofetilide) was 67.0% and the “AI as compared to control” value ([1]; low dose of dofetilide (33 nM)) was “reduced AI”.

In the case of `NCC(O)c1ccc(O)cc1` (stereo not shown) [octopamine], the “mean nMAD (arrhythmia) post-octopamine pacing” value (Drosophila heart; PLN/SclA KD hearts) is reported as 0.1342, the “mean nMAD (arrhythmia) post-octopamine pacing” value (Drosophila heart; control hearts) is reported as 0.0379 and the heart rate (Drosophila heart; [3]) is reported as “significantly elevated heart rate”. The systolic intervals (Drosophila heart; [3]) was “significantly shortening systolic intervals”, the “dose of maximal effect on heart rate” value (Drosophila heart; doses 0.1 nM to 500 nM OA) was 100 nM and the “contraction and relaxation intervals” value (Drosophila heart; in the presence of OA) was “significantly shortened”.

In the case of `COc1ccc(CCN(C)CCCC(C#N)(c2ccc(OC)c(OC)c2)C(C)C)cc1OC` (stereo not shown) [verapamil], the “fold less arrhythmic than DMSO control” value ([1]; verapamil 30 nM, PLN KD+Fib+isoproterenol) is reported as 1.7 fold and the “percentage of arrhythmic cells” value ([1]; verapamil 30 nM, PLN KD+Fib+isoproterenol, DMSO control 31.2%) is reported as 18%.
